The results in this text go back to US20190185479A1, “BICYCLIC NITROGENATED HETEROCYCLIC COMPOUND” (MITSUBISHI TANABE PHARMA CORPORATION, priority 2016, published 2019).

What all share (format): biochemical
The target of one assay is hPDE10A (Homo sapiens, UniProt Q9Y233). The assay is described as follows: PDE10 inhibition assay (IC50), Experimental Example 3. As to conditions: for inhibition at 100 µM: at 100 μmol/L; for inhibition at 100 µM / inhibition at 10 µM: read-out: inhibition rate (%) at prescribed concentration, PDE10; for IC50: hPDE10A, read-out: PDE inhibition assay IC50, PDE10; for inhibition at 10 µM: at 10 μmol/L. The method, then: (§1) PDE7 inhibitory assay was carried out by reacting the mixture of a compound, hPDE7B, and cAMP, and measuring the residual cAMP by a detection method using LANCE (registered trademark) Ultra cAMP Detection Kit (ParkinElmer). The compound was dissolved in DMSO, and diluted so that the concentration would become 50 times of the final concentration. The hPDE7B and cAMP were diluted with an assay buffer (50 mmol/L Tris-HCl, 1 mmol/L MgCl2, 0.1% BSA, 0.5 mmol/L DTT, pH7.5) so that the hPDE7B would have an appropriate enzyme activity and the concentration of cAMP would become 6 nmol/L. To a 96 well plate were added the compound (2 μL) (DMSO final concentration: 2%), hPDE7B (48 μL), and cAMP (50 μL) (concentration at the reaction: 3 nmol/L), and the resulting mixture was reacted at room temperature for 60 minutes. The reaction solution (20 μL) was subjected to a TR-FRET method according to the protocol specified by the kit to measure the concentration of the residual cAMP. In the assay, to a tracer solution specified by the kit was added 0.5 mmol/L of 3-isobutyl-1-methylxanthine (IBMX, nonselective PDE inhibitor) in order to stop the PDE enzyme reaction after the completion of reaction until the measurement.
(§2) The prediction of PDE7 selectivity was evaluated by comparing each IC50 value of a compound against PDE4, 8, and 10 with the IC50 value of said compound against PDE7B.
(§3) hPDE4D, hPDE8B, and hPDE10A were prepared by the same method as [Method for preparing samples 2].
(§4) PDE4, 8, and 10 inhibitory assays were carried out by the same method as [Assay procedure 1].
(§5) The reaction without a compound wad defined as “0% inhibition”, the reaction without each PDE was defined as “100% inhibition”, and the calculation of IC50 value was carried out by the same method as <Method for data calculation 1>.

Another assay addresses T1, hPDE8B (Homo sapiens, UniProt O95263).
T1 construct: purchased SB Drug Discovery
The assay is described as follows: PDE8 inhibition assay (IC50), Experimental Example 3. The following applies: for IC50: hPDE8B, read-out: PDE inhibition assay IC50, PDE8. The procedure:
as §1, §2, §3, §4, §5

A further assay deals with T2, hPDE4D (Homo sapiens, UniProt Q08499).
T2 construct: purchased SB Drug Discovery
The assay is described as follows: PDE4 inhibition assay (IC50), Experimental Example 3. The following applies: for IC50: hPDE4D, read-out: PDE inhibition assay IC50, PDE4. The method, then:
as §1, §2, §3, §4, §5

The target in another assay is T3, Human PDE7B (hPDE7B) (Homo sapiens, UniProt Q9NP56).
T3 construct: made in house; host or cells: COS-7 cells
As to the kind of experiment: Measurement of PDE7 inhibitory activity (Experimental Example 1; residual cAMP, LANCE Ultra cAMP TR-FRET). The following applies: cAMP 3 nmol/L, room temperature 60 minutes. In short, it runs like this:
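hPDE7B from transfected COS-7 cells reacted with 3 nmol/L cAMP (final) and compound (2% DMSO) in 50 mmol/L Tris-HCl pH 7.5, 1 mmol/L MgCl2, 0.1% BSA, 0.5 mmol/L DTT, 60 min at room temperature. Reaction stopped with IBMX; residual cAMP measured by TR-FRET. Inhibition scaled between no-compound and no-enzyme controls.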

Where only a bound is given, the exact number is not on record here.

T3 sequence (Q9NP56 whole entry): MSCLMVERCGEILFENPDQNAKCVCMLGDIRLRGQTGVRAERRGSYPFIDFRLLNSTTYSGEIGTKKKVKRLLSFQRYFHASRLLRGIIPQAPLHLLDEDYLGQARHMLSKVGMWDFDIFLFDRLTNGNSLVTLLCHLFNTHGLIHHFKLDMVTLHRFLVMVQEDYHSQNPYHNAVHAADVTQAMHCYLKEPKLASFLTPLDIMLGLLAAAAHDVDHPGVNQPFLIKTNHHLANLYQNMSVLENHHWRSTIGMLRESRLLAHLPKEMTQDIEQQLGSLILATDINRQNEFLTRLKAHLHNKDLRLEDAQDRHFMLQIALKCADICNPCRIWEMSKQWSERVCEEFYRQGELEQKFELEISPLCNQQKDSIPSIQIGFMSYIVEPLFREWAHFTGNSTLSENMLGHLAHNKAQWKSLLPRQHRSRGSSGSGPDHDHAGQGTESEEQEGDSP
Sequence of hPDE10A (Q9Y233 290-1055 limits assumed): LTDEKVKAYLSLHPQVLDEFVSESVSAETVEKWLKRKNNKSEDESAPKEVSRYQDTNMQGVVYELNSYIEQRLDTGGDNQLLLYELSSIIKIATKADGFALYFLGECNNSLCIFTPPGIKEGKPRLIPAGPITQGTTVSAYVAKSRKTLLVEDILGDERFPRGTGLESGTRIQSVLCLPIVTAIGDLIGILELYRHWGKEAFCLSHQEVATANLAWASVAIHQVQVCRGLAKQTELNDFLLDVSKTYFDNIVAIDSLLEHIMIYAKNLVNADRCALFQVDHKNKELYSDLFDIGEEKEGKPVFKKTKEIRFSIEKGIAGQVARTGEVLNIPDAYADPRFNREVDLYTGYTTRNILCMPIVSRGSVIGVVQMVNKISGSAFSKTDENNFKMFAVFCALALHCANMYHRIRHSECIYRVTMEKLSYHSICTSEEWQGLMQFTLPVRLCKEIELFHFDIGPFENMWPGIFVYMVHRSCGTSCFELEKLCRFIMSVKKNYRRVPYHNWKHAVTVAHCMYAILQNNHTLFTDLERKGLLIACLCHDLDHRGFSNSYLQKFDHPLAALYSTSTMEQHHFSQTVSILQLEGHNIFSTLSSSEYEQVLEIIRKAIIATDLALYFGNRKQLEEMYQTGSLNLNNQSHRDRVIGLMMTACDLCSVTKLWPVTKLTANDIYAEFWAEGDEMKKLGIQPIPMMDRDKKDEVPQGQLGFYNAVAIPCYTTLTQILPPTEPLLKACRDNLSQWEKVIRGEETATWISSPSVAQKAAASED
T2 sequence (Q08499 whole entry): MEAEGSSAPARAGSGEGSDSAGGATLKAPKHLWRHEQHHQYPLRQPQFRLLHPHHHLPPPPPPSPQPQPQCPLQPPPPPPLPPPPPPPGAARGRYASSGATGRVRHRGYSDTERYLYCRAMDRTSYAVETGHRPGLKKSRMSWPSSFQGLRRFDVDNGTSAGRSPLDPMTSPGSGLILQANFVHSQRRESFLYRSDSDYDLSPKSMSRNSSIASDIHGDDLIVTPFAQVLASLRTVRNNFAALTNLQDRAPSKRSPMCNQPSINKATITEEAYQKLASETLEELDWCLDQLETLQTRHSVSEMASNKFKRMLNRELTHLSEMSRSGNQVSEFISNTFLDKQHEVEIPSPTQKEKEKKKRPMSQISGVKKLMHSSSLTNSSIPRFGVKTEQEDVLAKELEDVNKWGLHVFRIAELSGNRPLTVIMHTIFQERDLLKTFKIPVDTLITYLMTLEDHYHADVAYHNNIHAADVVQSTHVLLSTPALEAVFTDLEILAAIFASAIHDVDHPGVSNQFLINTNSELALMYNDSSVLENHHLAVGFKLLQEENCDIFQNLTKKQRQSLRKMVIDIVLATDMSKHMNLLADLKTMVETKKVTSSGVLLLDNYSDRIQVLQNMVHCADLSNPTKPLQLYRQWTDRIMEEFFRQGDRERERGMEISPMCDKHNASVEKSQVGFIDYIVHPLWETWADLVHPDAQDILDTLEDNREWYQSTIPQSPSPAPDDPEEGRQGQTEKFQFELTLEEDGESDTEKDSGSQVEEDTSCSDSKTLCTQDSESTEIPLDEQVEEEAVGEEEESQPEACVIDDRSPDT
T1 sequence (O95263 whole entry): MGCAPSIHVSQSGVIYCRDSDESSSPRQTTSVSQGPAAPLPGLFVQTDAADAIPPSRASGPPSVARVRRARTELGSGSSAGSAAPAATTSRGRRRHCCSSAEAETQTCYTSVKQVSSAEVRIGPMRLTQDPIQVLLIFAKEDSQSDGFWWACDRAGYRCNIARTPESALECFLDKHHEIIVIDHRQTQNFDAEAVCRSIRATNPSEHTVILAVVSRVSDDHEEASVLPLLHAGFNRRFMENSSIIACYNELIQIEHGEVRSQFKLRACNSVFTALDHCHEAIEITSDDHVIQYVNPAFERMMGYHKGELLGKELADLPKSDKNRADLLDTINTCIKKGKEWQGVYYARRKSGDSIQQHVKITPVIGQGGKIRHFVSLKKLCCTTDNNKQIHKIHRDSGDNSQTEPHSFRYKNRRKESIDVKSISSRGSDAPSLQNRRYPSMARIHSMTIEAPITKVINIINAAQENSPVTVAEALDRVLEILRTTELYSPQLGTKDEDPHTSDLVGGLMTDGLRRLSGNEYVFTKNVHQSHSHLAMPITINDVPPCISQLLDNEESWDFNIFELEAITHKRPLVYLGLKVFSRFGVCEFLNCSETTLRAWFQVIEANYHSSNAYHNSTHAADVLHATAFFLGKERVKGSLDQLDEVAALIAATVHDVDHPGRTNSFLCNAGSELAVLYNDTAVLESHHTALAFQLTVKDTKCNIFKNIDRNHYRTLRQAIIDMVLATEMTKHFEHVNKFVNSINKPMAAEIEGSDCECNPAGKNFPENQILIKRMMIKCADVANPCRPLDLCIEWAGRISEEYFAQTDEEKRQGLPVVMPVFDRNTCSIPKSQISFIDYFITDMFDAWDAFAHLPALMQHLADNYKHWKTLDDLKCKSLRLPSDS

For the compound `CC1CC(C)CN(c2nnc3c(N)ncc(C#N)n23)C1` (racemic) [Example 54, 8-amino-3-(3,5-dimethylpiperidin-1-yl) [1,2,4]triazolo[4,3-a]pyrazine-5-carbonitrile], the inhibition at 100 µM on hPDE10A came to 30%. Besides, the results for the IC50 at hPDE8B, at hPDE4D and against Human PDE7B (hPDE7B) were 3350 nM, 7860 nM and 40 nM, respectively.
Consider `CC1CCN(c2nnc3c(N)nccn23)C(C)C1` (racemic) [Example 61, 3-(2,4-dimethylpiperidin-1-yl) [1,2,4]triazolo[4,3-a]pyrazin-8-amine], for which the 50% inhibitory concentration (IC50) at hPDE10A is 16300 nM; at hPDE8B it was 18400 nM; at hPDE4D, 5800 nM; on Human PDE7B (hPDE7B) it was 60 nM.
The like results for `CC1CCN(c2nnc3c(N)nccn23)C(C)C1` (racemic) [Example 62, 3-(2,4-dimethylpiperidin-1-yl) [1,2,4]triazolo[4,3-a]pyrazin-8-amine] were, in that order, 7100 nM, 21300 nM, 4300 nM and 40 nM.
Taken in the same sequence, the figures for `Nc1ncnn2c(C3CCCC(F)(F)C3)nnc12` (racemic) [Example 82, 3-(3,3-difluorocyclohexyl) [1,2,4]triazolo[3,4-f][1,2,4]triazin-8-amine] were 17900 nM, 2490 nM, 6210 nM and 40 nM.
Turning to `CC1CCC(C(F)(F)F)CC1c1nnc2c(N)ncnn12` (racemic) [Example 83, 3-[2-methyl-5-(trifluoromethyl)cyclohexyl][1,2,4]triazolo[3,4-f][1,2,4]triazin-8-amine], the IC50 is 3040 nM at hPDE10A, 1330 nM at hPDE8B and < 10 nM on Human PDE7B (hPDE7B). In addition, the inhibition at 1 µM on hPDE4D (at 1 μmol/L, read-out: inhibition rate (%) at prescribed concentration, PDE4) came out at 53%.
Turning to `C[C@H]1C[C@H](n2nnc3c(N)ncnc32)CC(C)(C)C1` (racemic) [Example 109, 3-(trans-3,3,5-trimethylcyclohexyl)-3H-[1,2,3]triazolo[4,5-d]pyrimidin-7-amine], the inhibition at 100 µM at hPDE10A turned out to be 24%. For the same compound, the IC50 at hPDE8B was determined as 12900 nM; on hPDE4D it was 99200 nM; against Human PDE7B (hPDE7B), 40 nM.
For the compound `CC1(C)CCCC(n2nnc3c(N)ncnc32)C1` (racemic) [Example 128, 3-(3,3-dimethylcyclohexyl)-3H-[1,2,3]triazolo[4,5-d]pyrimidin-7-amine], the inhibition at 10 µM at hPDE10A was found to be 43%. The IC50 on hPDE8B was 1310 nM; at hPDE4D, 4530 nM; against Human PDE7B (hPDE7B), 20 nM.
In the case of `Nc1nccn2c([C@H]3C[C@@H](C(F)(F)F)CCC3(F)F)nnc12` (racemic) [Example 172, 3-[cis-2,2-difluoro-5-(trifluoromethyl)cyclohexyl][1,2,4]triazolo[4,3-a]pyrazin-8-amine], the half-inhibitory concentration (IC50) on hPDE10A was 21800 nM; at hPDE8B it was 9000 nM; on hPDE4D, 5900 nM; on Human PDE7B (hPDE7B), < 10 nM.
Regarding `CC1CCCN(c2nnc3c(N)nccn23)C1C` (single isomer, unassigned) [Example 57, 3-(2,3-dimethylpiperidin-1-yl) [1,2,4]triazolo[4,3-a]pyrazin-8-amine], the 50% inhibitory concentration (IC50) at hPDE10A was 8700 nM; at hPDE8B, 9900 nM; on hPDE4D, 6400 nM; at Human PDE7B (hPDE7B), 50 nM.
With `CC1CCCCC1c1nnc2c(N)ncnn12` (single isomer, unassigned) [Example 70, 3-(cis-2-methylcyclohexyl) [1,2,4]triazolo[3,4-f][1,2,4]triazin-8-amine], the IC50 on hPDE10A is 1800 nM; against Human PDE7B (hPDE7B), 25 nM. In addition, the “inhibition rate (%) at prescribed concentration, PDE8” value at hPDE8B (at 1 μmol/L) is recorded as 64% at 1. The “inhibition rate (%) at prescribed concentration, PDE4” value on hPDE4D (at 1 μmol/L) was determined as 67% at 1.
For the compound `CC1CCCC(c2nnc3c(N)ncnn23)C1` (single isomer, unassigned) [Example 72, 3-(cis-3-methylcyclohexyl) [1,2,4]triazolo[3,4-f][1,2,4]triazin-8-amine], the IC50 on hPDE10A stood at 8910 nM; on hPDE4D, 1490 nM; against Human PDE7B (hPDE7B), 10 nM. For the same compound, the “inhibition rate (%) at prescribed concentration, PDE8” value against hPDE8B (at 1 μmol/L) was 62% at 1.
`CC1CCC(F)(F)CC1c1nnc2c(N)ncnn12` (single isomer, unassigned) [Example 246, 3-(cis-5,5-difluoro-2-methylcyclohexyl) [1,2,4]triazolo[3,4-f][1,2,4]triazin-8-amine]: the IC50 at hPDE8B was 4400 nM; on hPDE4D it was 2300 nM; at Human PDE7B (hPDE7B), 3 nM.
As to `CSc1nc(N)c2nnn(C3CCCCC3)c2n1` [Example 5, 3-cyclohexyl-5-(methylsulfanyl)-3H-[1,2,3]triazolo[4,5-d]pyrimidin-7-amine], the figures for the IC50 at hPDE10A, on hPDE4D and against Human PDE7B (hPDE7B) were 2760 nM, 190 nM and 30 nM, respectively.
`CC(C)(C)OC(=O)N1CCC[C@H](n2nnc3c(N)ncnc32)C1` [Example 13, Tert-butyl (3S)-3-(7-amino-3H-[1,2,3]triazolo[4,5-d]pyrimidin-3-yl)piperidine-1-carboxylate]: the 50% inhibitory concentration (IC50) on hPDE8B amounted to 220 nM; against Human PDE7B (hPDE7B) it was 160 nM.
As for `Nc1ncnc2c1nnn2[C@H]1CCCC(F)(F)C1` [Example 89], the inhibition at 10 µM at hPDE10A was determined as 17%. The figures for the 50% inhibitory concentration (IC50) on hPDE8B and against Human PDE7B (hPDE7B) were 8600 nM and 160 nM, respectively.
`COc1nc(N)c2nnn(C3CCCCC3)c2n1` [Example 92, 3-cyclohexyl-5-methoxy-3H-[1,2,3]triazolo[4,5-d]pyrimidin-7-amine]: the half-inhibitory concentration (IC50) at hPDE10A was 2970 nM; on hPDE4D, 640 nM; against Human PDE7B (hPDE7B), < 10 nM.
As to `CC[C@H]1CC[C@H](n2nnc3c(N)ncnc32)CC1` [Example 100], the IC50 on hPDE8B was found to be 1800 nM; against Human PDE7B (hPDE7B), 120 nM.
The like results for `C=C(C)[C@@H]1CC[C@@H](C)[C@@H](n2nnc3c(N)ncnc32)C1` [Example 106, 3-[(1S,2R,5R)-2-methyl-5-(prop-1-en-2-yl)cyclohexyl]-3H-[1,2,3]triazolo[4,5-d]pyrimidin-7-amine] were, in that order, 4380 nM and 300 nM.
On to `Nc1ncnc2c1nnn2C1CCCC(CF)C1` (centres unmarked) [Example 118], for which the inhibition at 1 µM on hPDE8B (at 1 μmol/L, read-out: inhibition rate (%) at prescribed concentration, PDE8) was found to be 55%. Besides, the values for the 50% inhibitory concentration (IC50) on hPDE4D and against Human PDE7B (hPDE7B) were 4250 nM and 80 nM, respectively.
For the compound `Nc1ncnc2c1nnn2C1CCCC(COc2ccccc2)C1` (centres unmarked) [Example 125], the figures for the IC50 on hPDE8B and against Human PDE7B (hPDE7B) were 1110 nM and 210 nM, respectively.
On to `Nc1ncnc2c1nnn2C1CCCC(COCc2ccccc2)C1` (centres unmarked) [Example 126], for which the half-inhibitory concentration (IC50) on hPDE8B is 2650 nM; against Human PDE7B (hPDE7B) it was 280 nM.
On to `Nc1ncnc2c1nnn2[C@H]1CCCN(c2ccccc2)C1` [Example 137, 3-[(3S)-1-phenylpiperidin-3-yl]-3H-[1,2,3]triazolo[4,5-d]pyrimidin-7-amine], for which, at hPDE8B (at 0.1 μmol/L, read-out: inhibition rate (%) at prescribed concentration, PDE8), the inhibition at 0.1 µM is 58%. Also, the half-inhibitory concentration (IC50) against Human PDE7B (hPDE7B) came out at 190 nM.
`Nc1ncnc2c1ncn2C1CCCCC1` [Example 182]: the half-maximal inhibitory concentration (IC50) was 470 nM on hPDE10A, 3420 nM at hPDE4D and 410 nM against Human PDE7B (hPDE7B).
Taken in the same sequence, the figures for `Nc1ncnc2c1c(C(F)(F)F)nn2C1CCCCC1` [Example 185] were 360 nM, 1840 nM and 560 nM.
Turning to `Cn1nc(C2CCCCC2)c2ncnc(N)c21` [Example 187, 3-cyclohexyl-1-methyl-1H-pyrazolo[4,3-d]pyrimidin-7-amine], the results for the IC50 on hPDE10A and against Human PDE7B (hPDE7B) were 2720 nM and 580 nM, respectively. Moreover, the inhibition at 10 µM at hPDE4D (at 10 μmol/L, read-out: inhibition rate (%) at prescribed concentration, PDE4) is 38%.
On to `Nc1ncnc2c(C3CCCCC3)onc12` [Example 253, 3-(cyclohexyl)-isoxazolo[4,3-d]pyrimidin-8-amine], for which the results for the IC50 on hPDE8B, at hPDE4D and against Human PDE7B (hPDE7B) were 3810 nM, 7380 nM and 610 nM, respectively.
